Consider 5 compounds from ChEMBL document CHEMBL1201862, “PubChem BioAssay data set” (2004).

Molecules are shown by their SMILES. Calls of active or inactive are those of the source. A value given as a limit tells only on which side of the number the result lay.

The nature of data set [1]: Trypanosoma cruzi growth suppression in host cells – NIH3T3 host cells, beta-gal luminescence, confirmation (AID 2044).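 Note: intracellular parasites grown in NIH/3T3 mouse fibroblasts as host cells; luminescent beta-galactosidase reporter signal from transgenic T. cruzi replicating inside host cells; inhibitors lower the luminescence signal.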 The class given is functional, cell-based.
For another data set, the target named is Ephrin type-A receptor 4 (Mus musculus, UniProt Q03137). In words: EphA4 ligand-binding antagonists – biochemical, colorimetric, mouse EphA4, primary screen (AID 689). The class given is functional.
The nature of data set [2]: NIH3T3 cell viability loss – ATP luminescence, mouse fibroblasts, counter-screen, dose response (AID 2010).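 Note: cells exposed to compound for about 90 hours before reading.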 The class given is functional, cell-based. For orientation: The purpose of a counterscreen is to sort out artefacts and off-target activity.
In data set [3] the target is T1, Voltage-gated inwardly rectifying potassium channel KCNH2 (Homo sapiens, UniProt Q12809). Nature of the data set: concentration-dependent hERG rescue from blockers – cell-based, thallium flux, dose response (AID 2121). The class given is ADME. (Block of hERG is tested as a sign of cardiac risk.)
Data set [4] is described as follows: Luminescence Cell-Based Dose Response HTS to Identify Inhibitors of 5'UTR Stem-Loop Driven Prion Protein mRNA Translation in H4 Neuroglioblastoma Cells. [Related pubchem assays: 1827 (Project Summary), 1813 (Primary HTS)]. The class given is functional.
The nature of data set [5]: luciferase reporter signal suppression in cells – H4 neuroglioma cells, luminescence, dose response (AID 1990). The class given is functional, cell-based. For orientation: Reporter assays use an easily measured gene product as a stand-in for the process of interest.
Data set [6] can be described thus: alpha-synuclein stem-loop luciferase translation blockers – H4 neuroglioma cells, luminescence, confirmation (AID 1988). The class given is functional, cell-based.
Data set [7] is described as follows: fluconazole-exposed Candida albicans growth modulators – fluorescence, retest, confirmation (AID 2467). The class given is functional, cell-based.
Another data set has as its system INS1. Nature of the data set: INS-1E survival protection against cytokine death – cell-based, luminescence, retest, dose response (AID 449756).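 Note: cell death triggered by IL-1 beta plus TNF-alpha plus IFN-gamma mixture; protective hits raise ATP signal compared with cytokine alone wells.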 The conditions noted are these: Rattus norvegicus. The class given is functional.
The target of the next data set is Nonstructural protein 1 (Influenza A virus, UniProt Q194T2). The class given is functional, Influenza A virus (A/California/07/2009(H1N1)).
Data set [8] can be described thus: NIH-3T3 fibroblast cytotoxicity, dose response, cytotoxicity control, cell-based, fluorescence, Alamar Blue, secondary assay (AID 2327).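 Note: NIH-3T3 mouse fibroblasts cultured with fluconazole at 8 µg/mL.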 The class given is functional.
Another data set concerns HEK293. Nature of the data set: EBV LMP1 TES2 canonical NF-kB signalling blockers – cell-based, HEK293, luciferase, cherry-pick, dose response (AID 588343). The class given is functional. The conditions noted are these: Homo sapiens.
Data set [9] can be described thus: cells. The class given is functional, cell-based.
Data set [10] in a line: viability loss in Vero cells – cytotoxicity control for Vif-APOBEC3G degradation inhibitor project, dose response (AID 1117358). The class given is functional. The note with it: Vero.
Data set [11] is described as follows: Luminescence Cell-Based Dose Retest to Confirm Inhibitors of Cancer Stem Cells. [Related pubchem assays (depositor defined):AID2717, AID2721]. The class given is functional. The note with it: Homo sapiens.
Data set [12] in a line: cells. The class given is functional, cell-based. This is another data set of the same source.
The nature of data set [13]: EF1alpha-driven Renilla reporter with control 3'UTR suppression – Clone20-Shn3RL cells, dual-Glo, cherry-pick, set 2, counter-screen for Shn3 3'UTR targeting project, dose response (AID 720724). The conditions noted are these: Dual-Go Shn3RL. The class given is functional, cell-based.
A short description of data set [14]: Shn3 3'UTR reporter signal decrease – cell-based, Clone20 osteoblasts, firefly luciferase, cherry-pick, set 2, Schnurri-3 inhibitor project, dose response (AID 720490).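 Note: actives lower the luminescence signal as inhibitors.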 The class given is functional.
The target in the next data set is Cytochrome P450 3A4 (Homo sapiens, UniProt P08684).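 Note: CYP3A4 tested as one member of a cytochrome P450 panel screen.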
The target of the next data set is T2, Cytochrome P450 1A2 (Homo sapiens, UniProt P05177).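 Note: PubChem cytochrome P450 panel assay, CYP1A2 panel member.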
T2 sequence (P05177 whole entry): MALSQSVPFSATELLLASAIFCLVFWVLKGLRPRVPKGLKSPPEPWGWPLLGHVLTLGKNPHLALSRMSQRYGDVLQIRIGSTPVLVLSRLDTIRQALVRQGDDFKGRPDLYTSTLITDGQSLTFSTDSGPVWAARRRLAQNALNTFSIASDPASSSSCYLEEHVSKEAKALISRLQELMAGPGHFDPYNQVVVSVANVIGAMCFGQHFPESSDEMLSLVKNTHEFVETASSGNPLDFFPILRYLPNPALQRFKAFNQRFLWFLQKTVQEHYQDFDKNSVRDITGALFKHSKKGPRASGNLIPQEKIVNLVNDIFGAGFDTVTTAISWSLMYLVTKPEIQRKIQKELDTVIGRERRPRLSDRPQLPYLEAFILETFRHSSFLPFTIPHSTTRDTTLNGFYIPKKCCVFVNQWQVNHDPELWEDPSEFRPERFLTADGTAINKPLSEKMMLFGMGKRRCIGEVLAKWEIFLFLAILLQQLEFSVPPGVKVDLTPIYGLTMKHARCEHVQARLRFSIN

Data set [15] can be described thus: non-specific 3'UTR reporter inhibition in Clone20-Shn3RL – cell-based, Renilla luciferase, cherry-picked, counter-screen for Shn3 inhibitor project, dose response (AID 624133). The class given is functional.
A short description of data set [16]: loss of viability in HepG2 cells – cell-based, CellTiter-Glo, cherry-picked, cytotoxicity control for Shn3 inhibitor project, dose response (AID 624134). The class given is functional.
Data set [17] is described as follows: reduction of Shn3 3'UTR-driven luciferase in osteoblasts – cell-based, Clone20 osteoblasts, firefly luciferase, cherry-picked, dose response (AID 624132).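 Note: firefly luciferase luminescence from reporter carrying the Shn3 3'UTR in osteoblasts.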 The class given is functional.
Data set [18] deals with T1, Voltage-gated inwardly rectifying potassium channel KCNH2. The conditions noted are these: Potency.
Data set [19] can be described thus: A Cell Based Secondary Assay To Explore Cytotoxicity of Compounds that Sensitize Mycobacterium Tuberculosis to Beta-Lactam Antibiotics. The class given is functional.
Data set [20] can be described thus: Reduced DLD-1 viability, concentration-response, CellTiter-Glo luminescence (AID 1117352). The class given is functional.
Data set [21] in a line: HCT116 cell viability decrease, GSK3B pretreatment – CellTiter-Glo, IC50, dose response (AID 1117339). The conditions noted are these: HCT-116. The class given is functional.
A short description of data set [22]: cytotoxicity toward HCT116 cells – cell-based, CellTiter-Glo luminescence, IC50, dose response (AID 1117332). The class given is functional. The note with it: HCT-116.
Data set [23] in a line: cytotoxicity toward HT-29 cells – cell-based, CellTiter-Glo luminescence, IC50, dose response (AID 1117330). The class given is functional.
A short description of data set [24]: CellTiter-Glo luminescence survival assay, SW480 colon tumor line, concentration-response curve, half-maximal inhibitory concentration (AID 1117338). The class given is functional.
The nature of data set [25]: RKO cell viability reduction, dose response, CellTiter-Glo luminescence (AID 1117322). The class given is functional.
Data set [26] is described as follows: cytotoxicity toward Colo320 cells – cell-based, CellTiter-Glo luminescence, IC50, dose response (AID 1117334). The class given is functional. The note with it: COLO 320.
Data set [27] in a line: SNU-C1 cell viability reduction, dose response, CellTiter-Glo luminescence (AID 1117323). The class given is functional, cell-based.
A short description of data set [28]: rise of 4N DNA cells, HeLa – IC50, dose response (AID 1117351). The class given is functional, cell-based.
Data set [29] in a line: rise of 2N DNA cells, HeLa – IC50, dose response (AID 1117349). The class given is functional, cell-based.

T1 sequence (Q12809 whole entry): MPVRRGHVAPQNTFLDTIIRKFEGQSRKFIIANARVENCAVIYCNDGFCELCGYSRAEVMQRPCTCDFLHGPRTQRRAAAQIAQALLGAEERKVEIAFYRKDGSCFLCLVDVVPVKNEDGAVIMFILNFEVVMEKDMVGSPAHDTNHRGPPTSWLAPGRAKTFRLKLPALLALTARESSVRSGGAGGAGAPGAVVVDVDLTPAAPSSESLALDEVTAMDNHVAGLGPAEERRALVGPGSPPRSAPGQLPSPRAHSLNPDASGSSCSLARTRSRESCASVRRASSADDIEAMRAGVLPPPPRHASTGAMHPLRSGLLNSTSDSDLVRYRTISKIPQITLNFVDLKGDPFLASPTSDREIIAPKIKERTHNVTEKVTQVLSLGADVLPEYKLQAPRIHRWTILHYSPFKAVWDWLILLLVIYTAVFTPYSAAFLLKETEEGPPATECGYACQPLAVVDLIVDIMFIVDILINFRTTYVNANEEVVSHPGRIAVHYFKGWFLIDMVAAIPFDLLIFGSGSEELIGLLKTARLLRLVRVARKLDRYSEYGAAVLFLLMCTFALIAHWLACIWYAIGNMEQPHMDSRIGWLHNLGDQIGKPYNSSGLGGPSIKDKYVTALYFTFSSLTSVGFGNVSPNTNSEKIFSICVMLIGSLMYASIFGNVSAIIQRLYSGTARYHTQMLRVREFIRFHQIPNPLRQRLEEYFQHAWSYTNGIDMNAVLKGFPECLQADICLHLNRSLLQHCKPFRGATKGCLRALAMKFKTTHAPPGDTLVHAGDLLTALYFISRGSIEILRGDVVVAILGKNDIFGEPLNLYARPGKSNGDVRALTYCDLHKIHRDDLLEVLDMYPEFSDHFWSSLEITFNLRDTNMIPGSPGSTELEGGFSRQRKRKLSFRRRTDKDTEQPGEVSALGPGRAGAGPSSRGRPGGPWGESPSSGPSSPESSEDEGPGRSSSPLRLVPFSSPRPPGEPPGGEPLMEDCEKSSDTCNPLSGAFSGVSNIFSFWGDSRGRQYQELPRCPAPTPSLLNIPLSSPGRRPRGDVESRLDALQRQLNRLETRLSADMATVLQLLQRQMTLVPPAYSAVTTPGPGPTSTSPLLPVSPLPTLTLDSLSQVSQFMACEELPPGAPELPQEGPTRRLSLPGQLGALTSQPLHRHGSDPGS
Ephrin type-A receptor 4, sequence (Q03137 whole entry): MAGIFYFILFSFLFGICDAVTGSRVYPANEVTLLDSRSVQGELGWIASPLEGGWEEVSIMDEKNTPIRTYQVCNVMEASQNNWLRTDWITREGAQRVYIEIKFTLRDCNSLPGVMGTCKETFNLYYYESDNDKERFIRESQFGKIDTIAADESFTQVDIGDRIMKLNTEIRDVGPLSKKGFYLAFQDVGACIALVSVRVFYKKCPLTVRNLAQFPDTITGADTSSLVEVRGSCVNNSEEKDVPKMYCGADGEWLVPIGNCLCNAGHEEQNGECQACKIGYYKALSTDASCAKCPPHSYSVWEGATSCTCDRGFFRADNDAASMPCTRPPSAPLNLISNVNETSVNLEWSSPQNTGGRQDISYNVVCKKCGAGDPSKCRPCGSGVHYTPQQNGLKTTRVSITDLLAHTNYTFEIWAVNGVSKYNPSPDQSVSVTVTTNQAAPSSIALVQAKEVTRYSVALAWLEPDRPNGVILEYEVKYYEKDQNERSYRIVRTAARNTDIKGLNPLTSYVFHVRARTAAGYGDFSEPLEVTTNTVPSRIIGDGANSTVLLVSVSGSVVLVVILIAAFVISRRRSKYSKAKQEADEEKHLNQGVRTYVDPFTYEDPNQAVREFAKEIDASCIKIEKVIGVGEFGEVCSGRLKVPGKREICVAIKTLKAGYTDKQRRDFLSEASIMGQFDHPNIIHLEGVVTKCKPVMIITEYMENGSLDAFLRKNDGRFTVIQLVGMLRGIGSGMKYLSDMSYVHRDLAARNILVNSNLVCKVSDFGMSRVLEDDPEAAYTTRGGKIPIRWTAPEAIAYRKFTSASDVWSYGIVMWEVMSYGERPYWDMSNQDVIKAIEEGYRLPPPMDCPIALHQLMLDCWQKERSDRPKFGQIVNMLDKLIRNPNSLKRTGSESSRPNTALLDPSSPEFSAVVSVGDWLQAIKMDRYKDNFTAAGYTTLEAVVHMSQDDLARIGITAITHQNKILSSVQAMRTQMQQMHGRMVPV
Nonstructural protein 1, sequence (Q194T2 whole entry): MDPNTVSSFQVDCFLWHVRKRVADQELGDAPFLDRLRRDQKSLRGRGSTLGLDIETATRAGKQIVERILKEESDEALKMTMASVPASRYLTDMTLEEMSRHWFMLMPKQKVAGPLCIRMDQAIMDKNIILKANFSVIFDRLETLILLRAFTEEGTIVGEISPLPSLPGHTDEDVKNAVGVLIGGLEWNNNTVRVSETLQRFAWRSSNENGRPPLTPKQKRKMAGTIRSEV
Cytochrome P450 3A4, sequence (P08684 whole entry): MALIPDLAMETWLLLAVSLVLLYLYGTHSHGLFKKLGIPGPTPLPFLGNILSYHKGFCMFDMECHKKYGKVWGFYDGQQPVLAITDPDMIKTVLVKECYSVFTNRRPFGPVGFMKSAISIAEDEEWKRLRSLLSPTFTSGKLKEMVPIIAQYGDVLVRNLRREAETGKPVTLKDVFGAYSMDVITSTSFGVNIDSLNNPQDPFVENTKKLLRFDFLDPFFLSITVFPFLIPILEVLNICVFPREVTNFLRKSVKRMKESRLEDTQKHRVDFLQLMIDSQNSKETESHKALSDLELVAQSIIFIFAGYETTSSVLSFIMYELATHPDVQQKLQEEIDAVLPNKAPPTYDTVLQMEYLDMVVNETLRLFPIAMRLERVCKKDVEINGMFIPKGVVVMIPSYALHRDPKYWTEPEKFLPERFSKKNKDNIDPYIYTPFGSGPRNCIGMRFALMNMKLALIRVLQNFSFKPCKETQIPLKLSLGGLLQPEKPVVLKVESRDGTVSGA

On to `Cc1ccc(C)c(N(CC(=O)N/N=C/c2ccc(-c3ccc([N+](=O)[O-])cc3)o2)S(=O)(=O)c2ccccc2)c1`, for which the EC50 in data set [1] was 1.65 µM (active); in data set [2], > 30 µM (not active). The IC50 at Ephrin type-A receptor 4 was > 100 µM (not active).

Turning to `CC(C)c1ccc(/C=N/n2c(S)nnc2COc2ccccc2)cc1`, the concentration for a half-maximal effect (EC50) in data set [3] was 7.6 µM (active).

As for `Oc1ccccc1/C=N/Nc1nccnc1Cl`, the EC50 in data set [4] is 9.43 µM (active); in [5], 9.08 µM (active); in [6], 4.65 µM (active); in data set [7], 1.06 µM (active); in [8], 38.5 µM (active); in “cells [9]” it was 9.82 µM (active). Further, the EC50 in “cells [12]” is 7.95 µM (active). The figures for the AC50 (with INS1; in the data set with HEK293; in [11]) were 0.747 µM (active), 14.9 µM (active) and 6.46 µM (active), respectively. Moreover, the IC50 at Nonstructural protein 1 was 15.9 µM (active). Also, in data set [10], the CC50 is 8.61 µM (active).

As for `Nc1ncnc2c1c(-c1ccc(Oc3ccccc3)cc1)cn2C1CCCC1`, the AC50 in [13] was 56.8 µM (active); in data set [14] it was 4.83 µM (active); at Cytochrome P450 3A4, “inconclusive”; at Cytochrome P450 1A2, 15.8 µM (inconclusive); in data set [15], 31.7 µM (active); in data set [16], > 70 µM (inactive). Further, the AC50 in data set [11] was 3.03 µM (active); in data set [17], 0.658 µM (active); in data set [18], 5.01 µM (inconclusive). Moreover, the CC50 in data set [19] is 0.802 µM (active).

On to `Cc1cc(O)c2c3c4c(cc(O)c13)C(C)(C)C(=O)c1c(O)cc(O)c(c1-4)C2=O` [HELIOMYCIN], for which the IC50 was 0.0709 µM (active) in data set [20]; 0.0574 µM (active) in data set [21]; 0.0775 µM (active) in data set [22]; 3.01 µM (active) in [23]; 0.058 µM (active) in [24]; 0.0754 µM (active) in [25]. Besides, the IC50 is 0.082 µM (active) in data set [26], 0.332 µM (active) in data set [27], > 10 µM (inactive) in data set [28] and > 10 µM (inactive) in data set [29].

Usually EC50 stands for the concentration at which the effect is half-maximal. By IC50 is commonly meant the concentration that gives 50% inhibition. The AC50 is the midpoint of the concentration-response curve, whichever way the signal moves. For orientation: CC50 means the concentration at which the toxic effect on the cells reaches its halfway point.
